Experimental data: publication PMC10654779, “Development of a fibroblast activation protein-targeted PET/NIR dual-modality probe and its application in head and neck cancer” (Frontiers in Bioengineering and Biotechnology, 2023)

Columns and labels:
[1] = Optical properties (UV/Vis absorbance and fluorescence emission spectra); assay type: physicochemical; conditions: 10 μM in PBS, diluted from 1 mM DMSO
Experimental: The ultraviolet absorption spectra of FAP-2286-ICG were collected using a UV/Vis spectrophotometer (DU-730, BeckMan Coulter). Fluorescence spectra were collected using a fluorescence spectrometer (FLS980, Edinburgh instruments). FAP-2286-ICG and ICG were dissolved in DMSO at a concentration of 1 mM before being diluted with PBS to a final concentration of 10 μΜ, respectively. The absorbance spectra were taken between 600 and 1100 nm. The emission spectra were recorded in the 790–860 nm range at an excitation wavelength of 770 nm. The concentration dependence of fluorescence intensity of FAP-2286-ICG was assessed with different concentrations of FAP-2286-ICG (0–100 μM). The fluorescent images were collected using a small animal fluorescence imaging system (VISQUE InVivo Smart-LF, Vieworks Co., Ltd) and analyzed using CleVue™ software (Vieworks Co., Ltd).

[2] = tested on: U87MG xenografts; assay: NIR fluorescence imaging of U87MG tumor-bearing mice; assay type: in vivo; conditions: 0.5-72 h post-injection, n = 3
Experimental: FI was performed using a small animal FI system with ICG mode: The NIR filter set (Excitation: 740–790 nm; Emission: 810–860 nm) was used for ICG fluorescence. The fluorescence intensity was calculated by the mean fluorescence intensity (MFI).
To evaluate the optimal imaging time window, NIR fluorescence images of U87MG tumor-bearing mice were collected at different time points (0.5, 1, 2, 24, 48, and 72 h) post-injection of FAP-2286-ICG (3.16 μg, 1.37 nmol). Following in vivo FI, mice were euthanized, and their xenografts and major organs were harvested for in vitro FI analysis. The ROIs were drawn manually in the tumor and organs on the fluorescence image to account for the distribution of FAP-2286-ICG in the tissue. MFI levels from organs and the TBRs using tumor/muscle values were evaluated.

[3] = tested on: U87MG cells; assay: Cellular retention by fluorescence imaging; assay type: cell-based, human; conditions: 3 μM (based on ICG), 37 °C, 24 h incubation, n = 5
Experimental: (§1) For the cellular uptake study, U87MG cells (2×10^5 cells/well) were seeded in 24-well plates and incubated at 37°C for 24 h before the experiments (five replicate wells per group). After removing the medium and washing the cells with fresh medium, the cells in each well were treated with DMEM medium containing 0.74 MBq [^68Ga]Ga-FAP-2286-ICG at 37°C for 30, 60, and 120 min. After removing the medium, the cells were washed twice with cold PBS, lysed with NaOH (1 M) twice (0.5 mL/well), and collected. The bound activity was measured with a γ-counter. For the blocking study, a 100-fold excess of the non-radiolabeled precursor was added before treating the cells with [^68Ga]Ga-FAP-2286-ICG. Subsequent experimental procedure and condition were the same as the aforementioned cellular uptake assay. To further verify whether the introduction of ICG affected the targeting of the precursor, [^68Ga]Ga-FAP-2286 was incubated with U87MG cells for 2 h as a control group. Additionally, the retention effect of probe on the tumor was verified. Briefly, U87MG cells were incubated with DMEM medium containing approximately 3 μM (based on the content of ICG) FAP-2286-ICG or ICG at 37 °C for 2, 4, 8, and 24 h. After discarding the medium, the cells were washed three times with PBS and imaged using a small animal FI system with ICG mode to quantify the fluorescent signal.

[4] = human; no reference given; cited from earlier work
Source text: Novel methodologies employing dual-labeled probes aid the surgeon by allowing for more streamlined preoperative planning via PET/CT or PET/MRI and accurate intraoperative navigation guidance.

[5] = in vitro; assay type: in vitro ADME
Experimental: The radiochemical purity (RCP) of [^68Ga]Ga-FAP-2286-ICG was assessed using radio instant thin-layer chromatography (Radio-iTLC). Glass microfiber chromatography paper impregnated with a silica gel served as the stationary phase and methanol and 0.25 M sodium acetate (1:1, v/v) as the mobile phase.
The in vitro stability of [^68Ga]Ga-FAP-2286-ICG was assessed by co-culture with 0.01 M PBS and FBS at a concentration of 10% (w/w), respectively, and the mixtures were incubated at 37°C for 0.5, 1, and 2 h.

[6] = tested on: BALB/c mice; assay: Toxicity study in BALB/c mice; assay type: in vivo
Experimental: The BALB/c mice were sacrificed and collected from the heart, liver, spleen, lung, and kidney to determine toxicity with hematoxylin and eosin (H&E) staining. The serum was collected to measure the levels of aspartate aminotransferase (AST), alanine aminotransferase (ALT), and blood urea nitrogen (UREA). Body weight was recorded every 5 days up to 20 days postinjection. The mice with intravenous injections of saline served as a control group.

[7] = tested on: U87MG cells; assay: Cellular uptake study (radioactivity, γ-counter); assay type: cell-based, human
Experimental: as §1

[8] = tested on: U87MG xenografts; assay: in vivo; assay type: in vivo, mice; conditions: for SUVmax of the tumor: U87MG tumor-bearing mice, 10 MBq (1 nmol) i.v.
Experimental: (§2) All animal studies were performed according to the protocols approved by the Animal Welfare Ethics Committee of Shanghai Fourth People’s Hospital. Six to eight-week-old female BALB/c nude mice were purchased from Beijing Vital River Laboratory Animal Technology Co., Ltd. To establish cell-derived xenograft (CDX) models, the mice were implanted subcutaneously in the flanks with 5 × 10^6 U87MG cells in PBS containing 50% Matrigel. HNSCC cell lines (FaDu, CAL27, and CNE2) were inoculated subcutaneously on the right flanks of nude mice. The diameter of each tumor was determined and documented every 2–3 days. When the tumor reached 300–400 mm^3, the mice were used for the imaging study. The U87MG tumor-bearing mice were used to study the in vivo targeting, biodistribution, and optimal FI time window of [^68Ga]Ga-FAP-2286-ICG. HNSCC tumor-bearing mice were used to evaluate the feasibility of [^68Ga]Ga-FAP-2286-ICG for tumor localization and guided surgical resection of HNSCC tumors.
(§3) PET/CT imaging was performed in U87MG tumor-bearing mice to assess the tumor-targeting efficiency and biodistribution of [^68Ga]Ga-FAP-2286-ICG in vivo. The mice were injected with 10 MBq (1 nmol) of [^68Ga]Ga-FAP-2286-ICG through the tail vein, and images were performed at 30, 60, and 90 min after injection. The blocking group was pre-injected with the 50-fold molar excess of non-radiolabeled precursor 1 h in advance.

[9] = in vivo; assay type: in vivo, mice; conditions: female, BALB/c nude, mouse, in vivo, iv, total radioactivity
Experimental: as §2, §3

[10] = assay type: physicochemical; conditions: pH 7.4
Experimental: The octanol-water partition coefficient of [^68Ga]Ga-FAP-2286-ICG was detected by mixing 10 μL of freshly prepared [^68Ga]Ga-FAP-2286-ICG with 490 μL of PBS (0.1 M, pH 7.4) and 500 μL of n-octanol in a centrifuge tube. The mixture was vortexed for 3 min and centrifuged at 3,000 × rpm for 5 min for layer separation. An aliquot of the aqueous and n-octanol layers was separately collected and measured by γ counter (GC-2101, PET Co., Ltd). Log p values were calculated using the formula: log P = log(total counts in octanol/total counts in PBS).

Structure (SMILES): CC1(C)C(/C=C/C=C/C=C/C=C2\N(CCCCS(=O)(=O)O)c3ccc4ccccc4c3C2(C)C)=[N+](CCCCS(=O)(=O)[O-])c2ccc3ccccc3c21 [ICG, indocyanine green]
- NIR-I fluorescence emission peak ([1]; excitation 770 nm, 790-860 nm): 808 nm
- absorption peak ([1]; spectra 600-1100 nm): 779 nm
- fluorescence signal in the tumor site [2]: no fluorescence signals in the tumor site
- fluorescent signal retained by cells [3]: 3.13×10^13 ± 2.21×10^12 p/sec/cm^2/sr/[μW/cm^2]
- clinically safe dose [4]: 5 mg/kg

Structure (SMILES): CCCCCC(=O)N[C@H]1CSCc2cc(CSCCNC(=O)[C@H](CCCCNC(=O)CCCCCN3/C(=C/C=C/C=C/C=C/C4=[N+](CCCCS(=O)(=O)[O-])c5ccc6ccccc6c5C4(C)C)C(C)(C)c4c3ccc3ccccc43)NC(=O)CN3CCN(CC(=O)O)CCN(CC(=O)O)CCN(CC(=O)O)CC3)cc(c2)CSC[C@@H](C(=O)O)NC(=O)[C@H](Cc2ccccc2)NC(=O)[C@H](CCC(N)=O)NC(=O)[C@H]([C@@H](C)O)NC(=O)[C@@H]2CCCN2C(=O)[C@@H]2CCCN2C1=O [[^68Ga]Ga-FAP-2286-ICG, metal not drawn]
- RCP after incubation in PBS [5]: greater than 85%
- remaining at 2 h ([5]; serum): > 85%
- acute toxicity ([6]; BALB/c mice, 3-week period, n = 3): no evident signs of acute toxicity
- serum concentrations of AST, ALT and UREA versus control group ([6]; BALB/c mice, 3 weeks after injection, saline control, n = 3): did not exhibit significant changes
- pathological abnormalities in major organs (H&E) ([6]; mouse, in vivo): No significant pathological abnormalities
- cellular uptake ([7]; 0.74 MBq, 37°C, 60 min, five replicate wells): 12.00% ± 1.73 %ID
- cellular uptake, blocked ([7]; 60 min, 100-fold excess of non-radiolabeled precursor): 6.88% ± 0.37 %ID
- cellular uptake of [68Ga]Ga-FAP-2286-ICG compared to [68Ga]Ga-FAP-2286 ([7]; 2 h incubation, p = 0.1945): no statistically significant difference
- SUVmax of the tumor, blocking group ([8]; 60 min p.i., 50-fold molar excess of non-radiolabeled precursor pre-injected 1 h in advance, n = 3): 0.17 ± 0.01
- SUVmax of the tumor ([8]; 30 min, n = 3): 0.57 ± 0.10
- SUVmax of the tumor ([8]; 90 min, n = 3): 0.58 ± 0.23
- route of elimination (PET/CT) ([8]; mouse, in vivo): mainly eliminated through liver metabolism and kidney excretion
- SUV [9]: 0.18 ± 0.07 SUV
- partition coefficient log P [10]: −1.20 ± 0.18
